Reference: the kinase profiling compilation of Christmann-Franck et al. (2016)

Assays:
Assay in all cases: KINOMEscan competition binding
Conditions in all cases: compound 10.0 µM
[1] = biological target: ACVR1 (human) (UniProt Q04771)
[2] = biological target: ACVR1B (human) (UniProt P36896)
[3] = biological target: AKT2 (human) (UniProt P31751)
[4] = biological target: AKT3 (human) (UniProt Q9Y243)
[5] = biological target: CAMK1D (human) (UniProt Q8IU85)
[6] = biological target: CDC42BPG (human) (UniProt Q6DT37)
[7] = biological target: CSNK1A1L (human) (UniProt Q8N752)
[8] = biological target: DCLK1 (human) (UniProt O15075)
[9] = biological target: EIF2AK2 (human) (UniProt P19525)
[10] = test system: EIF2AK4 KD2 (human), Q9P2K8 [S808G]
[11] = biological target: EPHA8 (human) (UniProt P29322)
[12] = biological target: ERBB2 (human) (UniProt P04626)
[13] = biological target: FGFR4 (human) (UniProt P22455)
[14] = biological target: FRK (human) (UniProt P42685)
[15] = biological target: GSK3B (human) (UniProt P49841)
[16] = biological target: HIPK2 (human) (UniProt Q9H2X6)
[17] = biological target: JAK2 JH1 catalytic (human) (UniProt O60674)
[18] = biological target: MAP3K11 (human) (UniProt Q16584)
[19] = biological target: MAP3K3 (human) (UniProt Q99759)
[20] = biological target: MAP4K2 (human) (UniProt Q12851)
[21] = biological target: MYLK4 (human) (UniProt Q86YV6)
[22] = biological target: NEK2 (human) (UniProt P51955)
[23] = biological target: PDGFRA (human) (UniProt P16234)
[24] = biological target: PI4KB (human) (UniProt Q9UBF8)
[25] = biological target: PIK3C2G (human) (UniProt O75747)
[26] = test system: PIK3CA (human), P42336 [E545A]
[27] = test system: PIK3CA (human), P42336 [M1043I]
[28] = biological target: PIK3CD (human) (UniProt O00329)
[29] = biological target: PIM2 (human) (UniProt Q9P1W9)
[30] = biological target: PIP4K2B (human) (UniProt P78356)
[31] = biological target: PRKAA1 (human) (UniProt Q13131)
[32] = biological target: PTK2B (human) (UniProt Q14289)
[33] = test system: RET (human), P07949 [V804M]
[34] = biological target: RPS6KA1 KD1 (human) (UniProt Q15418)
[35] = biological target: RPS6KA4 KD2 (human) (UniProt O75676)
[36] = biological target: STK32C (human) (UniProt Q86UX6)
[37] = biological target: STK38L (human) (UniProt Q9Y2H1)
[38] = biological target: STK4 (human) (UniProt Q13043)
[39] = biological target: SYK (human) (UniProt P43405)
[40] = biological target: TBK1 (human) (UniProt Q9UHD2)
[41] = biological target: TNNI3K (human) (UniProt Q59H18)

Chain of PIP4K2B (human) (P78356 whole entry, looked up): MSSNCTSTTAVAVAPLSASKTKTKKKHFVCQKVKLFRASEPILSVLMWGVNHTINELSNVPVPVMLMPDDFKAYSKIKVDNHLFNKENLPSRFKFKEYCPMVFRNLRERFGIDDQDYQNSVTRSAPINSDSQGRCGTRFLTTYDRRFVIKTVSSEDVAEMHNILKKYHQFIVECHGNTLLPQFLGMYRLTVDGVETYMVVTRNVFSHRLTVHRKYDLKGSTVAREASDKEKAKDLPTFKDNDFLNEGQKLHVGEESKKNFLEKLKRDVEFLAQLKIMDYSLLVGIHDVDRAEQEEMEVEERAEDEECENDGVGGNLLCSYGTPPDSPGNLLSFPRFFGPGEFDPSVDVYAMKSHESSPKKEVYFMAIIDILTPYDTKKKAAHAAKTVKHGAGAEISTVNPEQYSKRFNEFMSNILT
Chain of PIK3CA (human), P42336 [M1043I] (P42336 whole entry M1043I, looked up): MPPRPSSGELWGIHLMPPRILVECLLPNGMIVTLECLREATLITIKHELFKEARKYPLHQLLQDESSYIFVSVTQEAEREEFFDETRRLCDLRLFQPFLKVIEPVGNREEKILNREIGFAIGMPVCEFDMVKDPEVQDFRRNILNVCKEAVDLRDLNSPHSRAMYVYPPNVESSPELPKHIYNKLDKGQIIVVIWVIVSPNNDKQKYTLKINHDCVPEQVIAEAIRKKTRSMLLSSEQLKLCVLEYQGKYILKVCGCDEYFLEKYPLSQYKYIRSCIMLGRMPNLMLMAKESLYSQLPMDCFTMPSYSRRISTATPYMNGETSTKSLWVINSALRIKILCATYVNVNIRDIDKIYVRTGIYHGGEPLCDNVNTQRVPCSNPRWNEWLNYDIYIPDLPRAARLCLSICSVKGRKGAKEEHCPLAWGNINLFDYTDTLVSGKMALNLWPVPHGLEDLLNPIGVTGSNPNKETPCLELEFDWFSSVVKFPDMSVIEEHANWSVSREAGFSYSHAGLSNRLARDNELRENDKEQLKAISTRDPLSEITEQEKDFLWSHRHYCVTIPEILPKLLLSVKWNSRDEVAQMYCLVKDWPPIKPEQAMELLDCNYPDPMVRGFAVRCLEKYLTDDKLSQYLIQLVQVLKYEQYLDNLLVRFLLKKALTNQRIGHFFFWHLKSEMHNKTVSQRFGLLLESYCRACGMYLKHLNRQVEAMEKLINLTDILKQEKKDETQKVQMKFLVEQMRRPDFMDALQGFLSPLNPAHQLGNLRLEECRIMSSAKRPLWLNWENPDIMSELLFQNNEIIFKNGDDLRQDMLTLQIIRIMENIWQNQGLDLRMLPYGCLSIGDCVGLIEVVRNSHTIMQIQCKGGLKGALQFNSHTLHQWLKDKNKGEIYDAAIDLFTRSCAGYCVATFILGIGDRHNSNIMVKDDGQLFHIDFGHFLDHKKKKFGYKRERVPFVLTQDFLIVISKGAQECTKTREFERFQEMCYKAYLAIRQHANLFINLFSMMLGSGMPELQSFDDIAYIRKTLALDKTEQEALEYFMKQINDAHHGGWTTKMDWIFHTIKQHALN
Chain of HIPK2 (human) (Q9H2X6 whole entry, looked up): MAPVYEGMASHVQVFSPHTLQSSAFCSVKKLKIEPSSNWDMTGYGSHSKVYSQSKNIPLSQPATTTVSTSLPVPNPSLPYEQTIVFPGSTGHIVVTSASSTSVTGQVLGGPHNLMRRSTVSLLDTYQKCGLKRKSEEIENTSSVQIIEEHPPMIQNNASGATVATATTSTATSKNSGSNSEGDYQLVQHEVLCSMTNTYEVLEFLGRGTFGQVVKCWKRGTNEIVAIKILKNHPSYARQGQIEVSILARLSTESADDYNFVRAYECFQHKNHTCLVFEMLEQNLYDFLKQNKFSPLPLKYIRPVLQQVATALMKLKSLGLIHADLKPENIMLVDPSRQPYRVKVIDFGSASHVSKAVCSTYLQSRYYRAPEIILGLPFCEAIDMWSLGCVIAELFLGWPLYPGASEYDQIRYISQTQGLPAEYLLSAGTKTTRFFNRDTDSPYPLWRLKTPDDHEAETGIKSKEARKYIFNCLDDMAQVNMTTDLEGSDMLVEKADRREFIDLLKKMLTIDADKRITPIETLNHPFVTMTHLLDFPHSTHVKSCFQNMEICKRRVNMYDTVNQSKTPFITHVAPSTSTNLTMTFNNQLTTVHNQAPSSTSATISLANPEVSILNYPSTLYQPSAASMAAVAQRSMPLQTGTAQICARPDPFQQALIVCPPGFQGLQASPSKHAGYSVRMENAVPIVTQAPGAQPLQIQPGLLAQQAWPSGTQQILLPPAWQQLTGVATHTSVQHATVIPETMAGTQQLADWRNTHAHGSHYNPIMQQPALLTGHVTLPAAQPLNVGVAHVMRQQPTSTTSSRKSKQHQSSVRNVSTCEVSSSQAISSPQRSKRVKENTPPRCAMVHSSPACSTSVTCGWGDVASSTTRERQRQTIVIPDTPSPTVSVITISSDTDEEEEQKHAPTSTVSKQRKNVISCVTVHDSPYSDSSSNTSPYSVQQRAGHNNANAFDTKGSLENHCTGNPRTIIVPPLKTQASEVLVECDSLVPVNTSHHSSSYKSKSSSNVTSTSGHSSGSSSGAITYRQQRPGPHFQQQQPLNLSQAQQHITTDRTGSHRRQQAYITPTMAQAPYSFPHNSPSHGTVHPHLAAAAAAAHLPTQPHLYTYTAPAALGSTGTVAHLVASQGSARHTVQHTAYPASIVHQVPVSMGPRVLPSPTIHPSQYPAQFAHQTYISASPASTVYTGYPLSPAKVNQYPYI
Chain of STK38L (human) (Q9Y2H1 whole entry, looked up): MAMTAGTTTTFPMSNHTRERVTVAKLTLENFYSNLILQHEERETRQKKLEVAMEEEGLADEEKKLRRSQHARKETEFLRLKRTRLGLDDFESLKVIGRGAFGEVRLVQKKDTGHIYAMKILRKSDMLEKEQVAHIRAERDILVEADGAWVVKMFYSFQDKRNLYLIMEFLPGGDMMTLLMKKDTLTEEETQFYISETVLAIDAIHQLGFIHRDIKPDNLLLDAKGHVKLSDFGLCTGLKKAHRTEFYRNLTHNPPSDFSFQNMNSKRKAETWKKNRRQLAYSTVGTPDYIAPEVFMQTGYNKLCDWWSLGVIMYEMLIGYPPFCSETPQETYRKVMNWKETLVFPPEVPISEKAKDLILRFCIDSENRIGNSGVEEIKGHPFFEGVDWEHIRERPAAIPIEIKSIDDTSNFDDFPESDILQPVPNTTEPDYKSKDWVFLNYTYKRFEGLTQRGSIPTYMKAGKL
Chain of PIK3CA (human), P42336 [E545A] (P42336 whole entry E545A, looked up): as the sequence (P42336 whole entry M1043I, looked up) above, with E545A, I1043M counted along it
Chain of MYLK4 (human) (Q86YV6 whole entry, looked up): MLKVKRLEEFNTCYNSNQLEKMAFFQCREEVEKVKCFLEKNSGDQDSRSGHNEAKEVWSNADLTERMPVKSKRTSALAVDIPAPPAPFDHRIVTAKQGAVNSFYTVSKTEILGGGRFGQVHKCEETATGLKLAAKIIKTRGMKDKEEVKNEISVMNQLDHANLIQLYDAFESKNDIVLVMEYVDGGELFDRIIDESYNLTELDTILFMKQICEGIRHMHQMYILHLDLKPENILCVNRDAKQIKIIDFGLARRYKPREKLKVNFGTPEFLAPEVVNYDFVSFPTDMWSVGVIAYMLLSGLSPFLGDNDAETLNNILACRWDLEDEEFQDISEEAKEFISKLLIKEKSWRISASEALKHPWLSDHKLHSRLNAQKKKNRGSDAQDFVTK
Chain of PI4KB (human) (Q9UBF8 whole entry, looked up): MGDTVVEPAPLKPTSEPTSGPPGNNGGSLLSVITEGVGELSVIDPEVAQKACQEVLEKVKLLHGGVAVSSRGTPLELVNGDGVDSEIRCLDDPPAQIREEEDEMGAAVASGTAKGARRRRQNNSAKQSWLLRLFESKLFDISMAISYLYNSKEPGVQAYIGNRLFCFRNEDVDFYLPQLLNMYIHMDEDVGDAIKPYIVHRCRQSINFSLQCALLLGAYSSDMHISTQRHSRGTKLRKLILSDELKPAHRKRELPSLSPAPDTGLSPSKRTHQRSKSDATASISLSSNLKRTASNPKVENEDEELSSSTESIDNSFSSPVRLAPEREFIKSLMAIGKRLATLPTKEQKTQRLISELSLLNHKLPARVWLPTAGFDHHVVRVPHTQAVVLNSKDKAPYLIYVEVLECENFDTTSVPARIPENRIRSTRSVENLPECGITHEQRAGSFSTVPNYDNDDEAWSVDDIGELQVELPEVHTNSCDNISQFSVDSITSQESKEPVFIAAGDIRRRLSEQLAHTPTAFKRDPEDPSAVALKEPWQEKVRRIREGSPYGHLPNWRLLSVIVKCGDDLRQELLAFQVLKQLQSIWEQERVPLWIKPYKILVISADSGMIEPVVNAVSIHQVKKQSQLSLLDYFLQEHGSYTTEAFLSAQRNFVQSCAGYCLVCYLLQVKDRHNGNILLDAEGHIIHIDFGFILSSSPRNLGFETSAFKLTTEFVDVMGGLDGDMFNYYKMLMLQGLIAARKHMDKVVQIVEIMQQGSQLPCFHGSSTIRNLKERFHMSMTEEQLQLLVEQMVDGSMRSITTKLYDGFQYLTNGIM
Chain of MAP3K3 (human) (Q99759 whole entry, looked up): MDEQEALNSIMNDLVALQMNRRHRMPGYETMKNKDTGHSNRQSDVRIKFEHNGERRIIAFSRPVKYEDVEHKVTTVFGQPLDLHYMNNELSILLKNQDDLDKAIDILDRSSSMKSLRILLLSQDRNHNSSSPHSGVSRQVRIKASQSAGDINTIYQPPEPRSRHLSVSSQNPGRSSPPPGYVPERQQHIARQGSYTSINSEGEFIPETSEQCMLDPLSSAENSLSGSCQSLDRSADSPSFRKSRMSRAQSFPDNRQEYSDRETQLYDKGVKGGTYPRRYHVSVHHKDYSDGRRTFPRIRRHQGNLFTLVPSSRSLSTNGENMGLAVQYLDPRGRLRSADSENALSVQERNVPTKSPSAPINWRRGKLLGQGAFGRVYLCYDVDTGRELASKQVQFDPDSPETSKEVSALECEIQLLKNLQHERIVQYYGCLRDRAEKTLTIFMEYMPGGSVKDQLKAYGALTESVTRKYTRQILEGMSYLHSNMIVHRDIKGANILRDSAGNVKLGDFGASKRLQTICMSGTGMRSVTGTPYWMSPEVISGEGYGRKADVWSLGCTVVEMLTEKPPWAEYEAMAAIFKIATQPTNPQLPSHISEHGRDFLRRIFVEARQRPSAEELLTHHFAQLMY

- kinase still bound, per cent of control [1]: 100%
- kinase still bound, per cent of control [2]: 100%
- kinase still bound, per cent of control [3]: 100%
- kinase still bound, per cent of control [4]: 100%
- kinase still bound, per cent of control [5]: 100%
- kinase still bound, per cent of control [6]: 100%
- kinase still bound, per cent of control [7]: 100%
- kinase still bound, per cent of control [8]: 100%
- kinase still bound, per cent of control [9]: 50%
- kinase still bound, per cent of control [10]: 100%
- kinase still bound, per cent of control [11]: 100%
- kinase still bound, per cent of control [12]: 100%
- kinase still bound, per cent of control [13]: 100%
- kinase still bound, per cent of control [14]: 100%
- kinase still bound, per cent of control [15]: 1%
- kinase still bound, per cent of control [16]: 100%
- kinase still bound, per cent of control [17]: 100%
- kinase still bound, per cent of control [18]: 54%
- kinase still bound, per cent of control [19]: 100%
- kinase still bound, per cent of control [20]: 82%
- kinase still bound, per cent of control [21]: 98%
- kinase still bound, per cent of control [22]: 72%
- kinase still bound, per cent of control [23]: 100%
- kinase still bound, per cent of control [24]: 93%
- kinase still bound, per cent of control [25]: 100%
- kinase still bound, per cent of control [26]: 100%
- kinase still bound, per cent of control [27]: 100%
- kinase still bound, per cent of control [28]: 93%
- kinase still bound, per cent of control [29]: 89%
- kinase still bound, per cent of control [30]: 98%
- kinase still bound, per cent of control [31]: 82%
- kinase still bound, per cent of control [32]: 100%
- kinase still bound, per cent of control [33]: 90%
- kinase still bound, per cent of control [34]: 100%
- kinase still bound, per cent of control [35]: 80%
- kinase still bound, per cent of control [36]: 97%
- kinase still bound, per cent of control [37]: 100%
- kinase still bound, per cent of control [38]: 100%
- kinase still bound, per cent of control [39]: 100%
- kinase still bound, per cent of control [40]: 96%
- kinase still bound, per cent of control [41]: 100%
Structure (SMILES): Cc1cnc(-c2cnc(NCCNc3ccc(C#N)cn3)nc2-c2ccc(Cl)cc2Cl)[nH]1
